Target: T1, recombinant human serotonin receptor 5-HT2A (Homo sapiens, UniProt P28223)
T1 construct: expressed in transfected cells; method B: loaded with Ca2+ dye
Assay: 5-HT2A antagonist Ca2+ assay in CHO-K1 cells (method A aequorin luminescence / method B FLIPR fluorescence)
Format: cell-based
Conditions: antagonist mode vs EC80 of reference agonist, method A or B, read-out: 5HT2A IC50
In short: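 Method A: CHO-K1 cells co-expressing human 5-HT2A and mitochondrial apoaequorin were given reference agonist at EC80 15 min after compound, with luminescence read. Method B: dye-loaded 5-HT2A CHO-K1 cells were pretreated with compound, then given serotonin at EC80, with FLIPR fluorescence read. IC50s came from nonlinear fits of percent inhibition.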

T1 sequence (P28223 whole entry): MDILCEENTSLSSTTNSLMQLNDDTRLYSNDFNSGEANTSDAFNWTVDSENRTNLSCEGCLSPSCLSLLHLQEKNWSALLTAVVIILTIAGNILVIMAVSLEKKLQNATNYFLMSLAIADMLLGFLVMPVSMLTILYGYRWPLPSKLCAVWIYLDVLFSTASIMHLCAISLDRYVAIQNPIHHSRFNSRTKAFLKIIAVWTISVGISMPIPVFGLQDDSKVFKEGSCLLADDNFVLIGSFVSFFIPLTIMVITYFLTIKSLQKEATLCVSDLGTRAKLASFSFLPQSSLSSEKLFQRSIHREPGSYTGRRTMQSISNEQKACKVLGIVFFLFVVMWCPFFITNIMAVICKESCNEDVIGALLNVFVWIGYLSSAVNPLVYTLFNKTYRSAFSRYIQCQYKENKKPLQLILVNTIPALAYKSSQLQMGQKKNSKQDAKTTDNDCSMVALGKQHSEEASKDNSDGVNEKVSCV

Compound	IC50 [nM]
OC(CO[C@H]1CCc2ccccc21)CN1CC[C@H](Oc2cccc(F)c2)C1 (stereo partly drawn) [Example 35, 1-(((S)-2,3-dihydro-1H-inden-1-yl)oxy)-3-((S)-3-(3-fluorophenoxy)pyrrolidin-1-yl)propan-2-ol]	7130
COc1cccc(CN2CCC3(CCN(c4ccccc4)C3)C2)c1 (stereo not shown) [Example 343, 2-(3-methoxybenzyl)-7-phenyl-2,7-diazaspiro[4.4]nonane]	2460
O[C@H](COC1CCCCC1)CN1[C@@H]2CC[C@H]1CN(c1nccs1)C2 [Example 292, (S)-1-(cyclohexyloxy)-3-((1R,5S)-3-(thiazol-2-yl)-3,8-diazabicyclo[3.2.1]octan-8-yl)propan-2-ol]	> 10000
COc1ccc2c(c1)C(CN1C[C@H]3CC[C@@H]1CN3c1ccccc1)CC2 (single isomer, unassigned) [Compound 313]	> 10000
CC(CN1CCc2ccccc2C1=O)N1CC[C@@H](Oc2ccc(F)cc2)C1 (stereo partly drawn) [Example 33, 2-(2-((R)-3-(4-fluorophenoxy)pyrrolidin-1-yl)propyl)-3,4-dihydroisoquinolin-1(2H)-one]	> 10000
OC1(CN2CCC[C@@H](Oc3ccc(F)cc3)C2)COCc2ccccc21 (stereo partly drawn) [Example 258, 4-(((R)-3-(4-fluorophenoxy)piperidin-1-yl)methyl)isochroman-4-ol]	1500
OC(COc1ccccc1)CN1C[C@H]2CC[C@@H](C1)N2c1ccccc1 (stereo partly drawn) [Example 302, 1-phenoxy-3-((1R,5S)-8-phenyl-3,8-diazabicyclo[3.2.1]octan-3-yl)propan-2-ol]	> 2700
c1ccc(CCN2CCC(Oc3ccccc3)CC2)cc1 [Example 214, 1-phenethyl-4-phenoxypiperidine]	40
OC(COC1CCCCC1)CN1CCCC12CCN(c1ccccc1)C2 (stereo not shown) [Example 349, 1-(cyclohexyloxy)-3-(7-phenyl-1,7-diazaspiro[4.4]nonan-1-yl)propan-2-ol]	> 16700
COc1ccccc1OC1CCN(CC2(C)Cc3cccnc3C2)CC1 (stereo not shown) [Example 151, 6-((4-(2-methoxyphenoxy)piperidin-1-yl)methyl)-6-methyl-6,7-dihydro-5H-cyclopenta[b]pyridine]	> 10000
COc1ccccc1O[C@@H]1CCN(CCN2CCc3ccccc3C2=O)[C@H]1C [Example 17, 2-(2-((2S,3R)-3-(2-methoxyphenoxy)-2-methylpyrrolidin-1-yl)ethyl)-3,4-dihydroisoquinolin-1(2H)-one]	400
c1ccc(CCN2C[C@@H]3C[C@H]2CN3c2ccccc2)cc1 [Example 305, (1S,4S)-2-phenethyl-5-phenyl-2,5-diazabicyclo[2.2.1]heptane]	> 14500
O[C@@H](COC1CCCCC1)CN1C[C@@H]2C[C@H](C1)N(c1ccccc1)C2 [Example 332, (R)-1-(cyclohexyloxy)-3-((1S,5R)-6-phenyl-3,6-diazabicyclo[3.2.1]octan-3-yl)propan-2-ol]	> 16700
O[C@H](COC1CCCCC1)CN1CC[C@@H]2C[C@H]1CN2c1ccccc1 [Example 326, (S)-1-(cyclohexyloxy)-3-((1S,5R)-6-phenyl-2,6-diazabicyclo[3.2.1]octan-2-yl)propan-2-ol]	> 3160
COc1ccccc1O[C@@H]1CCN(CCN2CCc3ccccc3C2=O)[C@@H]1C [Example 20, 2-(2-((2R,3R)-3-(2-methoxyphenoxy)-2-methylpyrrolidin-1-yl)ethyl)-3,4-dihydroisoquinolin-1(2H)-one]	10
COc1ccccc1N1CCC2(CCN(CC3Cc4cccnc4C3)C2)C1 (stereo not shown) [Example 338, 2-((6,7-dihydro-5H-cyclopenta[b]pyridin-6-yl)methyl)-7-(2-methoxyphenyl)-2,7-diazaspiro[4.4]nonane]	> 10000
Fc1ccc(O[C@@H]2CCCN(CC3COCc4ccccc43)C2)cc1 (stereo partly drawn) [Example 260, (3R)-3-(4-fluorophenoxy)-1-(isochroman-4-ylmethyl)piperidine]	1810
C[C@H]1C[C@]2(CCc3ccccc3O2)CCN1CCN1CCc2ccccc2C1=O [Example 425, 2-(2-((2S,2′S)-2′-methylspiro[chromane-2,4′-piperidin]-1′-yl)ethyl)-3,4-dihydroisoquinolin-1(2H)-one]	120
c1ccc2c(c1)CCC1(CCN(CC3CCc4ncccc43)CC1)O2 (stereo not shown) [Example 407, 1′-((6,7-dihydro-5H-cyclopenta[b]pyridin-5-yl)methyl)spiro[chromane-2,4′-piperidine]]	3640
OC(COC1CCCCC1)CN1CCCC12CCCN(c1ccccc1)C2 (stereo not shown) [Example 353, 1-(cyclohexyloxy)-3-(7-phenyl-1,7-diazaspiro[4.5]decan-1-yl)propan-2-ol]	> 16700
c1ccc(CCN2C[C@H]3CC[C@@H](C2)N3c2ccccc2)cc1 [Example 298, (1R,5S)-3-phenethyl-8-phenyl-3,8-diazabicyclo[3.2.1]octane]	> 11000
c1ccc2c(c1)CCC1(CCN(CCO[C@@H]3CCc4ccccc43)CC1)O2 [Example 431, (R)-1′-(2-((2,3-dihydro-1H-inden-1-yl)oxy)ethyl)spiro[chromane-2,4′-piperidine]]	710
O=C1CC2(CN(CC3CCc4ccccc43)C2)Oc2ccccc21 (stereo not shown) [Example 386, 1-((2,3-dihydro-1H-inden-1-yl)methyl)spiro[azetidine-3,2′-chroman]-4′-one]	3760
Cc1cccc(N2CCN(CC3(O)CCOc4ccccc43)CC2)c1C (stereo not shown) [Example 58, 4-((4-(2,3-dimethylphenyl)piperazin-1-yl)methyl)chroman-4-ol]	490
Fc1ccccc1OC1CCN(CC2COc3ccccc32)CC1 (stereo not shown) [Example 132, 1-((2,3-dihydrobenzofuran-3-yl)methyl)-4-(2-fluorophenoxy)piperidine]	40
COCc1ccc(OC2CCN(CC3CCc4ncccc43)CC2)cc1 (stereo not shown) [Example 127, 5-((4-(4-(methoxymethyl)phenoxy)piperidin-1-yl)methyl)-6,7-dihydro-5H-cyclopenta[b]pyridine]	> 12000
O[C@H](CO[C@@H]1CCCc2ccccc21)CN1CCN(Cc2ccccc2)CC1 [Example 86, (S)-1-(4-benzylpiperazin-1-yl)-3-(((R)-1,2,3,4-tetrahydronaphthalen-1-yl)oxy)propan-2-ol]	> 16700

Next, values leading:

IC50 [nM]	Compound
980	COc1ccc2c(c1)C(CN1CCC(OCc3cccnc3)CC1)CC2 (stereo not shown) [Example 246, 3-(((1-((6-methoxy-2,3-dihydro-1H-inden-1-yl)methyl)piperidin-4-yl)oxy)methyl)pyridine]
5880	Fc1ccc(O[C@@H]2CCN(CC3CCc4ccncc43)C2)cc1 (stereo partly drawn) [Example 5, 7-(((R)-3-(4-fluorophenoxy)pyrrolidin-1-yl)methyl)-6,7-dihydro-5H-cyclopenta[c]pyridine]
2560	COc1cccc(O[C@@H]2CCN(CCN3CCc4ccccc4C3=O)C2)c1 [Example 21, (R)-2-(2-(3-(3-methoxyphenoxy)pyrrolidin-1-yl)ethyl)-3,4-dihydroisoquinolin-1(2H)-one]
3510	OC(COC1COCc2ccccc21)CN1CCC(Oc2ccccc2)CC1 (stereo not shown) [Example 239, 1-(isochroman-4-yloxy)-3-(4-phenoxypiperidin-1-yl)propan-2-ol]
2120	O[C@H](COC1CCCCC1)CN1CCC[C@H](Oc2ccc(F)cc2)C1 [Example 268, (S)-1-(cyclohexyloxy)-3-((S)-3-(4-fluorophenoxy)piperidin-1-yl)propan-2-ol]
740	COc1ccc2c(c1)C(CN1CCC(Oc3cccc(C(N)=O)c3)CC1)CC2 (stereo not shown) [Example 108, 3-((1-((6-methoxy-2,3-dihydro-1H-inden-1-yl)methyl)piperidin-4-yl)oxy)benzamide]
370	C[C@@H]1C[C@]2(CCc3ccccc3O2)CCN1CCO[C@H]1CCc2ccccc21 [Example 435, (2S,2′R)-1′-(2-(((S)-2,3-dihydro-1H-inden-1-yl)oxy)ethyl)-2′-methylspiro[chromane-2,4′-piperidine]]
410	CC1Cc2ccccc2C(=O)N1CCN1CCC(Oc2cccc(Cl)c2)CC1 (stereo not shown) [Example 198, 2-(2-(4-(3-chlorophenoxy)piperidin-1-yl)ethyl)-3-methyl-3,4-dihydroisoquinolin-1(2H)-one]
320	C[C@H]1C[C@]2(CCc3ccccc3O2)CCN1CCO[C@H]1CCc2ccccc21 [Example 433, (2S,2′S)-1′-(2-(((S)-2,3-dihydro-1H-inden-1-yl)oxy)ethyl)-2′-methylspiro[chromane-2,4′-piperidine]]
7130	COc1cccc(O[C@H]2CCN(CC(O)CO[C@@H]3CCc4ccccc43)C2)c1 (stereo partly drawn) [Example 41, 1-(((R)-2,3-dihydro-1H-inden-1-yl)oxy)-3-((S)-3-(3-methoxyphenoxy)pyrrolidin-1-yl)propan-2-ol]
760	COc1cccc(OC2CCN(CC3Cc4cccnc4C3)CC2)c1 (stereo not shown) [Example 153, 6-((4-(3-methoxyphenoxy)piperidin-1-yl)methyl)-6,7-dihydro-5H-cyclopenta[b]pyridine]
2300	Fc1ccc(O[C@@H]2CCN(CC3CCc4cnccc43)C2)cc1 (stereo partly drawn) [Example 1, 5-(((R)-3-(4-fluorophenoxy)pyrrolidin-1-yl)methyl)-6,7-dihydro-5H-cyclopenta[c]pyridine]
210	COCc1cccc(OC2CCN(CC3CCc4ccc(OC)cc43)CC2)c1 (stereo not shown) [Example 111, 1-((6-methoxy-2,3-dihydro-1H-inden-1-yl)methyl)-4-(3-(methoxymethyl)phenoxy)piperidine]
30	O[C@@H](COC1CCCCC1)CN1CCC(Oc2ccccc2)CC1 [Example 234, (R)-1-(cyclohexyloxy)-3-(4-phenoxypiperidin-1-yl)propan-2-ol]
440	COc1ccc2c(c1)C(CN1CCC(Oc3ccc(C#N)cc3)CC1)CC2 (stereo not shown) [Example 120, 4-((1-((6-methoxy-2,3-dihydro-1H-inden-1-yl)methyl)piperidin-4-yl)oxy)benzonitrile]
> 12900	O[C@H](COC1CCCCC1)CN1CCC[C@@H](Oc2ccc(F)cc2)C1 [Example 266, (S)-1-(cyclohexyloxy)-3-((R)-3-(4-fluorophenoxy)piperidin-1-yl)propan-2-ol]

Reference: patent publication US11186564B2, “Dual NAV1.2/5HT2a inhibitors for treating CNS disorders” (Sunovion Pharmaceuticals Inc., priority 2016, dated 2021)
